{
  "source": "patent US8592174B2",
  "about": "“Peptidase substrates” (bioMérieux, S.A., priority 2009, dated 2013)",
  "format_in_all_cases": "cell-based",
  "key": {"[1]": {"test_system": "Citrobacter braakii 05 06 109", "assay": "pH variation detection on modified chromID Coli medium (Example 6)", "parameters": "Coloration strength: key to the marks not given beside the values", "conditions": "50 mg/l, 24 h 37° C.", "protocol": "(§1) The media were incubated for 24 hours at 37° C., then the spots formed were examined visually."}, "E. coli 05 04 163": {"test_system": "E. coli 05 04 163", "assay": "pH variation detection on modified chromID Coli medium (Example 6)", "parameters": "Coloration strength: key to the marks not given beside the values", "conditions": "50 mg/l, 24 h 37° C.", "protocol": "as §1"}, "E. coli 05 06 043": {"test_system": "E. coli 05 06 043", "assay": "pH variation detection on modified chromID Coli medium (Example 6)", "parameters": "Coloration strength: key to the marks not given beside the values", "conditions": "50 mg/l, 24 h 37° C.", "protocol": "as §1"}, "[2]": {"test_system": "Enterobacter amnigenus 05 06 046", "assay": "pH variation detection on modified chromID Coli medium (Example 6)", "parameters": "Coloration strength: key to the marks not given beside the values", "conditions": "50 mg/l, 24 h 37° C.", "protocol": "as §1"}, "[3]": {"test_system": "Enterobacter cloacae 05 09 064", "assay": "pH variation detection on modified chromID Coli medium (Example 6)", "parameters": "Coloration strength: key to the marks not given beside the values", "conditions": "50 mg/l, 24 h 37° C.", "protocol": "as §1"}, "[4]": {"test_system": "Escherichia hermannii 04 03 161", "assay": "pH variation detection on modified chromID Coli medium (Example 6)", "parameters": "Coloration strength: key to the marks not given beside the values", "conditions": "50 mg/l, 24 h 37° C.", "protocol": "as §1"}, "[5]": {"test_system": "Morganella morganii ssp morganii 97 08 046", "assay": "pH variation detection on modified chromID Coli medium (Example 6)", "parameters": "Coloration strength: key to the marks not given beside the values", "conditions": "50 mg/l, 24 h 37° C.", "protocol": "as §1"}, "[6]": {"test_system": "Shigella boydii 00 04 212", "assay": "pH variation detection on modified chromID Coli medium (Example 6)", "parameters": "Coloration strength: key to the marks not given beside the values", "conditions": "50 mg/l, 24 h 37° C.", "protocol": "as §1"}, "[7]": {"test_system": "Forty-four strains of microorganisms", "assay": "pH variation detection on modified chromID Coli medium (Example 6), all strains", "conditions": "50 mg/l; 24 h 37° C.; conclusion of Example 6", "protocol": "as §1"}, "[8]": {"test_system": "Escherichia coli NCTC 10 418", "assay": "Peptidase detection on Columbia medium (Example 2)", "parameters": "key to Growth: NG: No growth; 0.5: weak growth; 1: moderate growth; 2: good growth", "conditions": "40 mg in 400 ml Columbia; 24 h 37° C.", "quoted_text": "(§2) The 6 media were distributed into Petri dishes 90 mm in diameter, in a proportion of 20 ml per dish.\n(§3) Seventeen strains of microorganisms stemming from collections and belonging to various species of bacteria and yeasts are inoculated in spots of approximately 10 000 colony-forming units.\n(§4) The media are incubated for 24 hours at 37° C., and then the colonies formed are examined visually, with or without the addition of acid and under a UV lamp at 365 nm."}, "[9]": {"test_system": "Serratia marcescens NCTC 10 211", "assay": "Peptidase detection on Columbia medium (Example 2)", "parameters": "key to Growth: NG: No growth; 0.5: weak growth; 1: moderate growth; 2: good growth", "conditions": "40 mg in 400 ml Columbia; 24 h 37° C.", "quoted_text": "as §2, §3, §4"}, "[10]": {"test_system": "Pseudomonas aeruginosa NCTC 10 662", "assay": "Peptidase detection on Columbia medium (Example 2)", "parameters": "key to Growth: NG: No growth; 0.5: weak growth; 1: moderate growth; 2: good growth", "conditions": "40 mg in 400 ml Columbia; 24 h 37° C.", "quoted_text": "as §2, §3, §4"}, "[11]": {"test_system": "Yersinia enterocolitica NCTC 11 176", "assay": "Peptidase detection on Columbia medium (Example 2)", "parameters": "key to Growth: NG: No growth; 0.5: weak growth; 1: moderate growth; 2: good growth", "conditions": "40 mg in 400 ml Columbia; 24 h 37° C."}, "[12]": {"test_system": "Salmonella typhimurium NCTC 74", "assay": "Peptidase detection on Columbia medium (Example 2)", "parameters": "key to Growth: NG: No growth; 0.5: weak growth; 1: moderate growth; 2: good growth", "conditions": "40 mg in 400 ml Columbia; 24 h 37° C.", "quoted_text": "as §2, §3, §4"}, "[13]": {"test_system": "Enterobacter cloacae NCTC 11 936", "assay": "Peptidase detection on Columbia medium (Example 2)", "parameters": "key to Growth: NG: No growth; 0.5: weak growth; 1: moderate growth; 2: good growth", "conditions": "40 mg in 400 ml Columbia; 24 h 37° C."}, "[14]": {"test_system": "Bacillus subtilis NCTC 9 372", "assay": "Peptidase detection on Columbia medium (Example 2)", "parameters": "key to Growth: NG: No growth; 0.5: weak growth; 1: moderate growth; 2: good growth; key to Fluo. / Color / Color post-acid.: —: no color", "conditions": "40 mg in 400 ml Columbia; 24 h 37° C."}, "[15]": {"test_system": "Staphylococcus aureus NCTC 6 571", "assay": "Peptidase detection on Columbia medium (Example 2)", "parameters": "key to Growth: NG: No growth; 0.5: weak growth; 1: moderate growth; 2: good growth; key to Fluo. / Color / Color post-acid.: —: no color", "conditions": "40 mg in 400 ml Columbia; 24 h 37° C.", "quoted_text": "as §2, §3, §4"}, "[16]": {"test_system": "Staphylococcus aureus NCTC 11 939", "assay": "Peptidase detection on Columbia medium (Example 2)", "parameters": "key to Growth: NG: No growth; 0.5: weak growth; 1: moderate growth; 2: good growth; key to Fluo. / Color / Color post-acid.: —: no color", "conditions": "40 mg in 400 ml Columbia; 24 h 37° C.", "quoted_text": "as §2, §3, §4"}, "[17]": {"test_system": "Streptococcus pyogenes NCTC 8 306", "assay": "Peptidase detection on Columbia medium (Example 2)", "parameters": "key to Growth: NG: No growth; 0.5: weak growth; 1: moderate growth; 2: good growth", "conditions": "40 mg in 400 ml Columbia; 24 h 37° C.", "quoted_text": "as §2, §3, §4"}, "[18]": {"test_system": "Listeria monocytogenes NCTC 11 994", "assay": "Peptidase detection on Columbia medium (Example 2)", "parameters": "key to Growth: NG: No growth; 0.5: weak growth; 1: moderate growth; 2: good growth; key to Fluo. / Color / Color post-acid.: —: no color", "conditions": "40 mg in 400 ml Columbia; 24 h 37° C.", "quoted_text": "as §2, §3, §4"}, "[19]": {"test_system": "Candida glabrata NCPF 3 943", "assay": "Peptidase detection on Columbia medium (Example 2)", "parameters": "key to Growth: NG: No growth; 0.5: weak growth; 1: moderate growth; 2: good growth; key to Fluo. / Color / Color post-acid.: —: no color", "conditions": "40 mg in 400 ml Columbia; 24 h 37° C.", "quoted_text": "as §2, §3, §4"}},
  "data": [
    {"compound": "Nc1ccc(C=Cc2ccnc3ccccc23)cc1", "values": [
      {"measurement": "Color", "setting": "[1]", "value": "Orange"},
      {"measurement": "Coloration strength", "setting": "[1]", "value": "++"},
      {"measurement": "Growth", "setting": "[1]; control C: ++", "value": "++"},
      {"measurement": "Color", "setting": "E. coli 05 04 163", "value": "Orange"},
      {"measurement": "Coloration strength", "setting": "E. coli 05 04 163", "value": "++"},
      {"measurement": "Growth", "setting": "E. coli 05 04 163; control C: ++", "value": "++"},
      {"measurement": "Color", "setting": "E. coli 05 06 043", "value": "Orange"},
      {"measurement": "Coloration strength", "setting": "E. coli 05 06 043", "value": "++"},
      {"measurement": "Growth", "setting": "E. coli 05 06 043; control C: ++", "value": "++"},
      {"measurement": "Color", "setting": "[2]", "value": "Orange"},
      {"measurement": "Coloration strength", "setting": "[2]", "value": "++"},
      {"measurement": "Growth", "setting": "[2]; control C: ++", "value": "++"},
      {"measurement": "Color", "setting": "[3]", "value": "Orange"},
      {"measurement": "Coloration strength", "setting": "[3]", "value": "++"},
      {"measurement": "Growth", "setting": "[3]; control C: ++", "value": "++"},
      {"measurement": "Color", "setting": "[4]", "value": "Orange"},
      {"measurement": "Coloration strength", "setting": "[4]", "value": "++"},
      {"measurement": "Growth", "setting": "[4]; control C: ++", "value": "++"},
      {"measurement": "Color", "setting": "[5]", "value": "Orange"},
      {"measurement": "Coloration strength", "setting": "[5]", "value": "++"},
      {"measurement": "Growth", "setting": "[5]; control C: ++", "value": "++"},
      {"measurement": "Color", "setting": "[6]", "value": "Orange"},
      {"measurement": "Coloration strength", "setting": "[6]", "value": "++"},
      {"measurement": "Growth", "setting": "[6]; control C: ++", "value": "++"},
      {"measurement": "toxicity", "setting": "[7]", "value": "does not exhibit any particular toxicity"}
    ]},
    {"compound": "C[C@H](N)C(=O)N[C@@H](C)C(=O)N[C@@H](C)C(=O)Nc1ccc(C=Cc2cc[n+](C)c3ccccc23)cc1.Cl.[Cl-]", "note": "[Tri-Ala-ASQM^+, L-alanyl-L-alanyl-L-alanyl-4-(4′-amidostyryl)-N-methylquinolinium (dichloride)]", "values": [
      {"measurement": "Color", "setting": "[8]", "value": "Orange"},
      {"measurement": "Growth", "setting": "[8]", "value": 2},
      {"measurement": "Color", "setting": "[9]", "value": "Orange"},
      {"measurement": "Growth", "setting": "[9]", "value": 2},
      {"measurement": "Color", "setting": "[10]", "value": "Orange"},
      {"measurement": "Growth", "setting": "[10]", "value": 2},
      {"measurement": "Growth", "setting": "[11]", "value": 2},
      {"measurement": "Color", "setting": "[12]", "value": "Orange"},
      {"measurement": "Growth", "setting": "[12]", "value": 2},
      {"measurement": "Color", "setting": "[13]", "value": "Orange"},
      {"measurement": "Growth", "setting": "[13]", "value": 2},
      {"measurement": "Color", "setting": "[14]", "value": "—"},
      {"measurement": "Growth", "setting": "[14]", "value": 2},
      {"measurement": "Color", "setting": "[15]", "value": "—"},
      {"measurement": "Growth", "setting": "[15]", "value": 2},
      {"measurement": "Color", "setting": "[16]", "value": "—"},
      {"measurement": "Growth", "setting": "[16]", "value": 2},
      {"measurement": "Growth", "setting": "[17]", "value": 2},
      {"measurement": "Color", "setting": "[18]", "value": "—"},
      {"measurement": "Growth", "setting": "[18]", "value": 2},
      {"measurement": "Color", "setting": "[19]", "value": "—"},
      {"measurement": "Growth", "setting": "[19]", "value": 2}
    ]}
  ]
}
